Assay results reported in patent US6548540B2, “Method of treating cancer using dithiocarbamate derivatives” (Charlotte-Mecklenburg Hospital Authority, priority 1998, dated 2003).

Assays:
Assay type in all cases: cell-based, human
AP-1 = assay: EMSA of treated cells, AP-1 DNA binding; details: disulfiram plus copper; 24 hours; data not shown
Experimental: Nuclear protein was isolated and DNA binding reactions were performed as previously described in detail (See, […], et al., “Dehydroepiandrosterone and analogs inhibit DNA binding of AP-1 and airway smooth muscle proliferation,” J. Pharmacol. Exper. Ther. 285:[…] (1998); T. Kennedy, et al., “Copper-dependent inflammation and nuclear factor-κB activation by particulate air pollution,” Am. J. Respir. Cell Mol. Biol. 19:366-378 (1998)). Monolayers were washed twice in cold DPBS and equilibrated 10 minutes on ice with 0.7 ml cold cytoplasmic extraction buffer, CEB (10 mM Tris, pH 7.9, 60 mM KCl, 1 mM EDTA, 1 mM DTT) with protease inhibitors, PI (1 mM Pefabloc, 50 μg/ml antipain, 1 μg/ml leupeptin, 1 μg/ml pepstatin, 40 μg/ml bestatin, 3 μg/ml E-64 and 100 μg/ml chymostatin). The detergent Nonidet P-40 (NP-40) was added to a final concentration of 0.1% and cells were dislodged with a cell scraper. Nuclei were pelleted by centrifugation and washed with CEB/PI. […]

cyclin B1 = assay: Immunoblot for cyclin B1; details: disulfiram plus copper; data not shown
Experimental: (§1) Cells were lysed and proteins were isolated and quantitated by immunoassay as previously detailed using 2 μg/ml of primary rabbit polyclonal antibodies against human bcl-2, p53, p21^WAF1/CiP1, cyclin A and cyclin B1, and peroxidase-labeled donkey polyclonal anti-rabbit IgG. Cells were placed on ice, washed twice with cold DPBS, scraped into 0.5 ml boiling buffer (10% [vol/vol] glycerol and 2% [wt/vol] sodium dodecyl sulfate [SDS] in 83 mM Tris, pH 6.8) and sheared by four passages through a pipette. Aliquots were removed for protein determination, using the BCA protein assay (Pierce). After 10% β-mercaptoethanol and 0.05% bromophenol blue were added, lysates were boiled for 5 min and stored at −80° C. until immunoblotting was performed. Proteins in defrosted samples were separated by SDS-polyacrylamide gel electrophoresis on 12% polyacrylamide gels (15 μg protein/lane) and electrotransferred to 0.45 μm Hybond ECL nitrocellulose membranes (Amersham Life Sciences) using the wet transblot method in transfer buffer (0.025 M Tris, 0.192 M glycine, 2.6 mM SDS, and 20%[vol/vol] methanol; pH 8.8) at 100 volts for 1 hour. […] Immunoblots were rinsed again as above and detected via an enhanced chemiluminescence method (ECL Western blotting detection system, Amersham Life Science, Buckinghamshire, England). […]

p21WAF1/CIP1 = assay: Immunoblot for p21WAF1/CIP1; details: cell lines studied; data not shown
Experimental: as §1

M1619 melanoma cells = assay: Intracellular copper by plasma emission spectroscopy; details: 6 hours, ng copper/ml of hydrolysate
Experimental: Finally, a number of dithiocarbamate effects on cells have been attributed to increasing the intracellular levels of copper ions. To further probe the role of copper in mediating cytotoxicity from disulfiram, cells were cultured with or without addition of the impermeate Cu^2+ chelator bathocuprioinedisulfonic acid (BCPS, 100 μM) added to medium to sequester Cu^2+ in the extracellular compartment. Cells were also treated 12 hours with various concentration of disulfiram (0.625 to 5.0 μM) and intracellular copper levels were measured as outlined below.
Cells were cultured in 12-well plastic tissue culture plates at an initial plating density of 50,000 cells/well, grown to confluence and treated with disulfiram or vehicle DMSO as outlined above. Media was removed and cells were washed twice with DPBS. Cells were then scraped into 1.0 ml of 3N HCl/10.0% trichloroacetic acid and hydrolyzed at 70° C. for 16 hours. The hydrolysate was centrifuged at 600 gm for 10 minutes to remove debris and copper was measured in the supernatant using inductively coupled plasma emission spectroscopy (Model P30, Perkin Elmer, Norwalk, Conn.) at wavelengths of […] and 224.700 nm. To minimize metal contamination, plasticware rather than glassware was used in these experiments, and double-distilled, deionized water was used for all aqueous media. Results are reported as ng copper/ml of hydrolysate.
M1619 melanoma cells were cultured at a density of 50,000 cells/well in 24 well plates in the presence of 10% FBS and grown to confluence. Disulfiram or DMSO vehicle (5 μl/ml) was added at the concentrations indicated, and cells were incubated an additional 6 hours. Supernatant was removed from cells and monolayers were washed twice with DPBS. Cells were scraped into 1.0 ml 3 N HCL/10% trichloroacetic acid and hydrolyzed at 70° C. for 16 hours. After centrifugation at 600 g×10 min, copper was measured using inductively coupled plasma emission spectroscopy at wavelengths of 324.754 and 224.700 nm. Replicates of four are reported. To minimize metal contamination, plastic ware rather than glass was used in experiments, and double-distilled, deionized water was used for all aqueous media. ^Ap<0.01 compared to DMSO control; ^Bp<0.001 compared to DMSO control.

Structure (SMILES): CCN(CC)C(=S)SSC(=S)N(CC)CC [Disulfiram, tetraethylthiuram disulfide]
- DNA binding of AP-1 (AP-1): inhibited
- levels of B1 (cyclin B1): remained unchanged
- expression of p21WAF1/CIP1 (p21WAF1/CIP1): no consistent effect
- Intracellular Copper (M1619 melanoma cells; FBS + 0.625 μM DS): 76 ± 11 ng/mL
- Intracellular Copper (M1619 melanoma cells; FBS + 1.25 μM DS): 102 ± 5^A ng/ml
- Intracellular Copper (M1619 melanoma cells; FBS + 2.5 μM DS): 160 ± 17^A ng/ml
- Intracellular Copper (M1619 melanoma cells; FBS + 5.0 μM DS): 195 ± 3^B ng/ml
